From US7410986B2, “4-6-diphenyl pyridine derivatives as antiinflammatory agents” (Bayer Aktiengesellschaft, priority 2000, dated 2008)
Structures can show the parent of a compound that is named as a salt. Where two headings read alike, the source gives them in different places.

Legend:
[1] = system: RANTES production in response to TNF-α from A549 cells; assay: RANTES production in response to TNF-α from A549 cells; format: cell-based, human; details: 100 ng/ml TNF-α, compounds of about 40 to 90% purity, read-out: Cellular activity grade (A549, IC50)
[2] = biological target: T1, human IKK-β (Homo sapiens, UniProt O14920); assay: IKK-β kinase inhibitory assay; format: biochemical; details: compounds of about 40 to 90% purity, read-out: In vitro activity grade (invitro, IC50)
T1 construct: A cDNA fragment encoding human IKK-β open reading frame was generated by PCR; His; made in house; host or cells: Sf21 insect cells (baculovirus); the GST-IκBα substrate was made in E. coli
T1 sequence (O14920 1-756): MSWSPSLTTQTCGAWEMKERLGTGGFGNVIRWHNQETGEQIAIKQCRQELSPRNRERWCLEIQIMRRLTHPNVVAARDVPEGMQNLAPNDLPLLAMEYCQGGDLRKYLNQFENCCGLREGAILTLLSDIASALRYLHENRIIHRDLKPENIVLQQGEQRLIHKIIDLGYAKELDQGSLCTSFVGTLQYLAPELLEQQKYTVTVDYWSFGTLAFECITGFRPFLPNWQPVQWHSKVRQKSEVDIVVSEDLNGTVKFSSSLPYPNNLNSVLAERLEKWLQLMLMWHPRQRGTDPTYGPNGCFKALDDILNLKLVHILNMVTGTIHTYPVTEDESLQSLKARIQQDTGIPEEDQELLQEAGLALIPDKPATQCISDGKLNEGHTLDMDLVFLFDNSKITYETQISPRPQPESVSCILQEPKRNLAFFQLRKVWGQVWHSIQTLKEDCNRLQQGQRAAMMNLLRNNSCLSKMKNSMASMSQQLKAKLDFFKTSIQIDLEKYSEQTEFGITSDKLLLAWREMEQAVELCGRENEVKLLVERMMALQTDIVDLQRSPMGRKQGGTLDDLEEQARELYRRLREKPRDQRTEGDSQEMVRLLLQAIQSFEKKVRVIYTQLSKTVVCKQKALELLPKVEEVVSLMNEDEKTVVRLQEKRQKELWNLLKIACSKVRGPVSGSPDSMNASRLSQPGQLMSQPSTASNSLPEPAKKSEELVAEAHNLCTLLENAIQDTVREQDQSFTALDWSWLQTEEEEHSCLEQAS
Text: IKK-β Kinase Inhibitory Assay.
• (1) Preparation of IKK-β Kinase Protein. • A cDNA fragment encoding human IKK-β open reading frame was generated by PCR with the use of a pair of primers designed from the published sequence (Woronicz J D et al. (1997) Science 278,866-869). A template was obtained from Quickclone cDNA (Clontech) using Elongase™ Amplification kit (Life Technologies). The DNA fragments generated by PCR were gel-purified and subcloned into pBluescript. The cDNA fragment cloned in pBluescript was inserted into pcDNA3.1/His C KpnI/NotI, and transferred into pVL1393 SmaI/XbaI (Pharmingen) to construct a baculovirus transfer vector. Then the vector, together with the linearized baculovirus (BaculoGold™, Pharmingen) was used to transfect Sf21 cells (Invitrogen, San Diego, Calif.). Generated recombinant baculovirus was cloned and amplified in Sf21 cells, grown in TNM-FH insect cell medium (Life Technologies, Inc.) supplemented with 10% FCS, […] Gentamycin, 0.1% Pluronic F-68 (Life Technologies, Inc.) as suspension culture (200 ml in 1 L Erlenmeyer flask; 27° C.; 130 rpm). Sf21 cells were infected with this amplified virus with a multiplicity of infection of 5 following standard protocols (Crossen R, Gruenwald S (1997) Baculovirus Expression Vector System Instruction Manual, Pharmingen Corporation) and harvested 48 hrs. later. The cells were lysed to obtain the produced chimeric protein of IKK-β kinase fused by histidine (His-tagged IKK-beta). • (2) The Preparation of Purified GST-IκBα Fusion Proteins • An expression vector containing the nucleotide sequence encoding fusion protein of GST with amino acid residues 1 to 54 of IκBα under the control of an IPTG-inducible promoter was constructed. The expression vector was introduced in E. coli and the transformant was cultured and lysed to obtain a GST-IκBα fusion protein. Then the resulting GST-IκBα fusion protein was purified and biotinated for kinase assay. • (3) The Measurement of IKK-β Kinase Activity • The 96-well format kinase assay of IKK-β was performed to test the inhibitory activity of the compounds of the present invention. First, 5 μl of a test compound was put in the presence of 2.5% dimethyl sulfoxide (DMSO) in each well in a U-bottomed 96-well plate (Falcon). For control wells of background (BG) and total phosphorylation (TP), 5 μl of 2.5% DMSO was put. Recombinant IKK-β (final 0.6 μg/ml) and bio-GST-IκBα (1-54) (final 0.2 μM) were diluted in 25 μl of 2×kinase buffer β (40 mM Tris-HCl, pH 7.6, 40 mM MgCl2, 40 mM β-glycerophosphate, 40 mM p-nitrophenyl-phosphate, 2 mM EDTA, 40 mM creatine phosphate, 2 mM DTT, 2 mM Na3VO4, 0.2 mg/ml BSA and 0.8 mM phenylmethylsulfonyl fluoride) and transferred to the 96-well plate. Bio-GST-IκBα (1-54) in 25 μl of 2×kinase buffer β without IKK-β was transferred to BG wells. Then 20 μl of 12.5 μM ATP, 62.5 μCi/ml [γ-^33P] ATP (Amersham Pharmacia Biotech) was added and the resulting mixture was incubated for 2 hrs. at room temperature. The kinase reactions were terminated by the addition of 150 μl of termination buffer (100 mM EDTA, 1 mg/ml BSA, 0.2 mg NaN3). One handred and fifty μl of the sample was transferred to a streptavidin-coated, white MTP (Steffens Biotechniche Analysen GmbH #08114E14. FWD) to capture the biotinylated substrates. After 1 hr. of incubation, non-bound radioactivity was eliminated by washing the wells five times with 300 μl of washing buffer including 0.9% NaCl and 0.1% (w/v) Tween-20 with the use of a MW-96 plate washer (BioTec). The bound radioactivity was determined after the addition of 170 μl MicroScint-PS scintillation cocktail (Packard) using a TopCount scintillation counter. Syk Tyrosine Kinase Inhibitory Assay for Selectivity. • (1) Preparation of Syk Protein • A cDNA fragment encoding human Syk openreading frame was cloned from total RNA of human Burkitt's lymphoma B cell lines, Raji (American Type Culture Collection), with the use of RT-PCR method. […]

| SMILES | IC50 ([1]; Homo sapiens, A549, 24 h) | IC50 [2] | IC50 ([1]; 24 hrs) |
| --- | --- | --- | --- |
| N#Cc1c(-c2cccc(NC(=O)CCN3CCCCC3)c2)cc(-c2ccccc2O)nc1N [Example 2-1, N-{3-[2-amino-3-cyano-6-(2-hydroxyphenyl)-4-pyridinyl]phenyl}-3-(1-piperidinyl)propanamide hydrochloride] | 1 to 10 µM | 500 to 2000 nM | – |
| N#Cc1c(-c2cccc(NC(=O)C[C@H](N)C(=O)O)c2)cc(-c2ccccc2O)nc1N [Example 2-02] | – | 500 to 2000 nM | > 10 µM |
| N#Cc1c(-c2cccc(NC(=O)[C@@H](N)CC(=O)O)c2)cc(-c2ccccc2O)nc1N [Example 2-03] | > 10 µM | 500 to 2000 nM | – |
| N#Cc1c(-c2ccc(NC(=O)CCN3CCCCC3)cc2)cc(-c2ccccc2O)nc1N [Example 2-05] | > 10 µM | 500 to 2000 nM | – |
| CC(=O)Nc1nc(-c2ccccc2O)cc(-c2cccc(NC(=O)CCN3CCCCC3)c2)c1C#N [Example 2-06] | > 10 µM | > 10000 nM | – |
| Cc1ccc(O)c(-c2cc(-c3cccc(NC(=O)CCN4CCCCC4)c3)c(C#N)c(N)n2)c1 [Example 2-07] | > 10 µM | 2000 to 10000 nM | – |
| CN1CCN(C(=O)Nc2cccc(-c3cc(-c4ccccc4O)nc(N)c3C#N)c2)CC1 [Example 2-08] | 1 to 10 µM | 2000 to 10000 nM | – |
| N#Cc1c(-c2cccc(NC(=O)NCCN3CCCCC3)c2)cc(-c2ccccc2O)nc1N [Example 2-09] | 1 to 10 µM | 500 to 2000 nM | – |
| N#Cc1c(-c2cc(NC(=O)CCN3CCCCC3)ccc2Cl)cc(-c2ccccc2O)nc1N [Example 2-10] | 1 to 10 µM | 500 to 2000 nM | – |
| CC(C)C[C@H](N)C(=O)Nc1ccc(F)c(-c2cc(-c3ccccc3O)nc(N)c2C#N)c1 [Example 2-11] | 1 to 10 µM | 500 to 2000 nM | – |
| N#Cc1c(-c2cc(NC(=O)CCN)ccc2F)cc(-c2ccccc2O)nc1N [Example 2-12] | > 10 µM | 2000 to 10000 nM | – |
| N#Cc1c(-c2ccc(Cl)c(NC(=O)CCN)c2)cc(-c2ccccc2O)nc1N [Example 2-13] | 1 to 10 µM | < 500 nM | – |
| N#Cc1c(-c2cc(NC(=O)CCN3CCCCC3)ccc2F)cc(-c2ccccc2O)nc1N [Example 2-14] | 1 to 10 µM | 500 to 2000 nM | – |
| N#Cc1c(-c2ccc(N)c(O)c2)cc(-c2ccccc2O)nc1N [Example 2-15] | 1 to 10 µM | < 500 nM | – |
| CC(=O)Nc1ccc(-c2cc(-c3ccccc3O)nc(N)c2C#N)cc1O [Example 2-16] | 1 to 10 µM | < 500 nM | – |
| N#Cc1c(-c2cccc(NC(=O)CCN3CCCCC3)c2)cc(-c2ncccc2O)nc1N [Example 2-17] | > 10 µM | 500 to 2000 nM | – |
| N#Cc1c(-c2ccc(Cl)c(NC(=O)CCN3CCCCC3)c2)cc(-c2ccccc2O)nc1N [Example 2-18] | > 10 µM | 500 to 2000 nM | – |
| N#Cc1c(-c2ccc(Cl)c(N)c2)cc(-c2ccccc2O)nc1N [Example 2-19] | 1 to 10 µM | > 10000 nM | – |
| N#Cc1c(-c2ccc(N3CCCC3)c(NC(=O)CCN3CCCCC3)c2)cc(-c2ccccc2O)nc1N [Example 3-1, N-[5-[2-amino-3-cyano-6-(2-hydroxyphenyl)-4-pyridinyl]-2-(1-pyrrolidinyl)phenyl]-3-(1-piperidinyl)propanamide hydrochloride] | 1 to 10 µM | 500 to 2000 nM | – |
| N#Cc1c(-c2ccc(N3CCC(N)C3)c(NC(=O)CCN)c2)cc(-c2ccccc2O)nc1N (stereo not shown) [Example 3-02] | 1 to 10 µM | < 500 nM | – |
| N#Cc1c(-c2ccc(N3CCCCC3)c(NC(=O)CCN)c2)cc(-c2ccccc2O)nc1N [Example 3-03] | 1 to 10 µM | < 500 nM | – |
| N#Cc1c(-c2ccc(N3CCCC3)c(NC(=O)CCN)c2)cc(-c2ccccc2O)nc1N [Example 3-04] | 1 to 10 µM | < 500 nM | – |
| CCN(CCO)c1ccc(-c2cc(-c3ccccc3O)nc(N)c2C#N)cc1NC(=O)CCN [Example 3-05] | 1 to 10 µM | 500 to 2000 nM | – |
| N#Cc1c(-c2ccc(N3CCOCC3)c(NC(=O)CCN)c2)cc(-c2ccccc2O)nc1N [Example 3-06] | 1 to 10 µM | 500 to 2000 nM | – |
| CN(C)c1ccc(-c2cc(-c3ccccc3O)nc(N)c2C#N)cc1NC(=O)CCN [Example 3-07] | 1 to 10 µM | < 500 nM | – |
| CN(C)c1ccc(-c2cc(-c3ccccc3O)nc(N)c2C#N)cc1NC(=O)CCN1CCCCC1 [Example 3-08] | 1 to 10 µM | < 500 nM | – |
| CN(C)c1ccc(NC(=O)CCN2CCCCC2)cc1-c1cc(-c2ccccc2O)nc(N)c1C#N [Example 3-09] | 1 to 10 µM | 2000 to 10000 nM | – |
| N#Cc1c(-c2ccc(N3CCCCC3)c(NC(=O)CCN3CCCCC3)c2)cc(-c2ccccc2O)nc1N [Example 3-10] | 1 to 10 µM | 2000 to 10000 nM | – |
| CC(C)C[C@H](N)C(=O)Nc1cc(-c2cc(-c3ccccc3O)nc(N)c2C#N)ccc1N1CCC[C@H]1CO [Example 3-11] | 1 to 10 µM | 500 to 2000 nM | – |
